The record followed here is ChEMBL document CHEMBL1201862, “PubChem BioAssay data set” (2004).

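96-well plates; 48 h exposure; 5 concentrations. Endpoints by linear interpolation between flanking doses. Not reached: highest tested concentration assigned. GI50: concentration for 50% inhibition of growth.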 Activity calls are given as the source filed them. Rule as the data show it: active = GI50 up to about 1.1 µM and inactive = higher. Residues, ends and D or L forms follow the SMILES beside them.

Broadly, the GI50 is the concentration that inhibits growth by half.

Assay in all cases: DTP human tumour cell line panel, 48 h
Assay [1] deals with U-251.
The test system of assay [2] is CAKI-1.
Assay [3] relates to HL-60.
Assay [4] deals with NCI-H522.
In assay [5] the test system is UACC-257.
Assay [6] has as its system OVCAR-4.
Assay [7] concerns MDA-N.
Assay [8] has as its system HCT-15.
Assay [9] relates to RPMI-8226.
Assay [10] deals with KM12.
Assay [11] relates to MCF7.
The test system of assay [12] is UO-31.
For assay [13], the system named is A498.
Assay [14] deals with K562.
Assay [15] has as its system LOX IMVI.
The subject of assay [16] is COLO 205.
In assay [17] the test system is SNB-19.
For assay [18], the system named is SR.
Assay [19] has as its system TK-10.
Assay [20] has as its system MOLT-4.

With `CCC(C)C(NC(=O)C(CC(C)C)NC(=O)CNC(=O)C(NC(=O)C1CCCN1C(=O)C(CC(C)C)NC(=O)C(N)Cc1ccccc1)C(C)CC)C(=O)NC(CC(C)C)C(N)=O` (stereo not given) (H-FLPIGLIL-NH2; configuration not given here), the GI50 in assay [1], in assay [2], in assay [3], in assay [4], in [5] and in assay [6] was > 75 µM (inactive) in each case. Moreover, the GI50 in assay [7] is > 75 µM (inactive); in assay [8] it was over 75 µM; in [9] it was > 75 µM (inactive); in assay [10], > 75 µM (inactive); in assay [11], > 75 µM (inactive); in assay [12] it was > 75 µM (inactive). Further, the GI50 in assay [13], in [14], in [15], in assay [16], in assay [17] and in assay [18] was > 75 µM (inactive) throughout. Moreover, the GI50 in [19] and in assay [20] was > 75 µM (inactive) throughout.
